Target: T1, human PD-L1 / human PD-1 interaction (Homo sapiens, UniProt Q9NZQ7)
T1 construct: purchased R&D (PD-L1); ACRO Biosystems (PD-1, biotin)
Assay: ELISA of PD-1/PD-L1 interaction
Assay type: binding
Method: The activity of Compound 1.041 was assessed with an ELISA assay assessing the direct binding of recombinant PD-1 and PD-L1 proteins (FIG. 1A), a dimerization ELISA assay assessing the direct binding/dimerization of recombinant PD-L1 proteins (FIG. 1B), a cell based assay measuring the downstream signaling following the interaction of PD-1 and PD-L1 using a Luciferase reporter assay with cell lines overexpressing PD-1 and PD-L1 (FIG. 1C), and a mixed lymphocyte reaction assay measuring the functional outcome of upregulation of IFNg secretion, using allogenic primary human immune cells (FIG. 1D). Briefly, the mixed lymophocyte reaction assay was performed as follows: Dendritic cells and CD4+T Cells from unmatched donors were cultured together for 5 days in 96 well-flat bottom plates. Test compound was added as indicated at starting concentration of 1 μM with 1:4 dilutions with DMSO. Supernatants were harvested after 5 days of incubation and detection of human IFNg was performed by ELISA. […]
96 Well plates were coated with 1 μg/mL of human PD-L1 (obtained from R&D) in
PBS overnight at 4° C. The wells were then blocked with 2% BSA in PBS (WN) with 0.05% TWEEN-20 for 1 hour at 37° C. The plates were washed 3 times with PBS/0.05% TWEEN-20 and the compounds were serial diluted (1:5) in dilution medium and added to the ELISA plates. Human PD-1 and biotin 0.3μg/mL (ACRO Biosystems) were added and incubated for 1 hour at 37° C. then washed 3 times with PBS/0.05% TWEEN-20. A second block was performed with 2% BSA in PBS (WN)/0.05% TWEEN-20 for 10 min at 37° C. and was washed 3 times with PBS/0.05% TWEEN-20. Streptavidin—HRP was added for 1 hour at 37° C. then washed 3 times with PBS/0.05% TWEEN-20. TMB substrate was added and reacted for 20 min at 37° C. A stop solution (2 N aqueous H2SO4) was added. The absorbance was read at 450 nm using a micro-plate spectrophotometer.

T1 sequence (Q9NZQ7 19-239 limits assumed): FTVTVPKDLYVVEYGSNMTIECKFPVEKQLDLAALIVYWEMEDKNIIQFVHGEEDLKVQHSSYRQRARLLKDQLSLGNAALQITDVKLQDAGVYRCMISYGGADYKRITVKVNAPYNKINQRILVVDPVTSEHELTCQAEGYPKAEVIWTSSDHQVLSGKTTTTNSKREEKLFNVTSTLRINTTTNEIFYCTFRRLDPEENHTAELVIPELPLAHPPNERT

Row | Structure (SMILES) | IC50
1 | Cc1c(OCCCN2CCC2)cccc1-c1cccc2c1CC[C@@H]2Oc1cc(OCc2cc(C#N)cc(C#N)c2)c(CNC[C@H]2CCC(=O)N2)cc1Cl | < 5 nM
2 | Cc1c(OCCCN2CCC(O)CC2)cccc1-c1cccc2c1CC[C@@H]2Oc1cc(OCc2cc(C#N)cc(C#N)c2)c(CN[C@@H](CO)C(=O)O)cc1Cl | < 5 nM
3 | CCOc1cc(O[C@H]2CCc3c(-c4cccc(OCCCN5[C@H](C)CC[C@H]5C)c4C)cccc32)c(Cl)cc1CN1CCCC[C@H]1C(=O)O | 5 to 500 nM
4 | Cc1c(OCCCN2CCC(F)CC2)cccc1-c1cccc2c1CC[C@@H]2Oc1cc(OCc2cc(C#N)cc(C#N)c2)c(CNCC(=O)NS(C)(=O)=O)cc1Cl | < 5 nM
5 | CN(Cc1cc(Cl)c(O[C@H]2CCc3c(-c4cccc(OCCCN5CC(O)C5)c4Cl)cccc32)cc1OCc1cncc(C#N)c1)[C@@](C)(CO)C(=O)O | < 5 nM
6 | Cc1c(OCCCN2CCC[C@@H](O)C2)cccc1-c1cccc2c1CC[C@@H]2Oc1cc(OCc2cncc(C#N)c2)c(CN[C@H](C(=O)O)[C@@H](C)O)cc1Cl | < 5 nM
7 | C[C@@H](O)[C@H](NCc1cc(Cl)c(O[C@H]2CCc3c(-c4cccc(OCCCN5CCC(O)CC5)c4Cl)cccc32)cc1OCc1cncc(C#N)c1)C(=O)O | < 5 nM
8 | CCOc1cc(O[C@H]2CCc3c(-c4cccc(OCCCN5CC[C@@H](O)C5)c4C)cccc32)c(Cl)cc1CNC(C)(CO)CO | < 5 nM
9 | Cc1c(OCCCN2CCC(O)CC2)cccc1-c1cccc2c1C[C@H](F)[C@@H]2Oc1cc(OCc2cncc(C#N)c2)c(CN[C@@H]2CCCC[C@@H]2O)cc1Cl | < 5 nM
10 | CCOc1cc(O[C@H]2CCc3c(-c4cccc(OCCCN(C)C(C)C)c4C)cccc32)c(Cl)cc1CNC[C@@H]1CCC(=O)N1 | < 5 nM
11 | N#Cc1cncc(COc2cc(O[C@H]3CCc4c(-c5cccc(OCCCN6CC(O)C6)c5Cl)cccc43)c(Cl)cc2CN2CC[C@@H](O)C2)c1 | < 5 nM
12 | Cc1c(OCCCN2CCC(O)CC2)cccc1-c1cccc2c1CC[C@@H]2Oc1cc(OCc2cc(C#N)cc(C#N)c2)c(CN[C@@H]2CCCC[C@@H]2O)cc1Cl | < 5 nM
13 | Cc1c(OCCCN2CCC(O)CC2)cccc1-c1cccc2c1CC[C@@H]2Oc1cc(OCc2cncc(C#N)c2)c(CN(C)[C@H](C(=O)O)[C@@H](C)O)cc1Cl | < 5 nM
14 | N#Cc1cncc(COc2cc(O[C@H]3CCc4c(-c5cccc(OCCCN6CC7(CCC7)C6)c5Cl)cccc43)c(Cl)cc2CN[C@@H]2CCCC[C@@H]2O)c1 | < 5 nM
15 | N#Cc1cncc(COc2cc(O[C@H]3CCc4c(-c5cccc(OCCCN6CCC6)c5Cl)cccc43)c(Cl)cc2CNC[C@H]2CCC(=O)N2)c1 | < 5 nM
16 | CC(CO)(NCc1cc(Cl)c(O[C@H]2CCc3c(-c4cccc(OCCCN5CC(O)C5)c4Cl)cccc32)cc1OCc1cccnc1)C(=O)O (stereo partly shown) | < 5 nM
17 | N#Cc1cncc(COc2cc(O[C@H]3CCc4c(-c5cccc(OCCCN6CC7(C6)CC(F)(F)C7)c5Cl)cccc43)c(Cl)cc2CN[C@H]2CCC[C@H]2O)c1 | < 5 nM
18 | N#Cc1cncc(COc2cc(O[C@H]3CCc4c(-c5cccc(OCCCN6CCC(F)CC6)c5Cl)cccc43)c(Cl)cc2CN[C@@H]2CC[C@H]2O)c1 | < 5 nM
19 | Cc1c(OCCCN2CCC(F)CC2)cccc1-c1cccc2c1CC[C@@H]2Oc1cc(OCc2cc(C#N)cc(C#N)c2)c(CNC[C@@H]2CCC(=O)N2)cc1Cl | < 5 nM
20 | CC1(F)CCN(CCCOc2cccc(-c3cccc4c3CC[C@@H]4Oc3cc(OCc4cncc(C#N)c4)c(CN[C@H]4CCC(=O)NC4)cc3Cl)c2Cl)CC1 | 5 to 500 nM
21 | CCOc1cc(O[C@H]2CCc3c(-c4cccc(OCCCN(C)C(C)(C)C)c4C)cccc32)c(Cl)cc1CNC[C@@H]1CCC(=O)N1 | < 5 nM
22 | Cc1c(OCCCN2[C@H](C)CC[C@H]2C)cccc1-c1cccc2c1CC[C@@H]2Oc1cc(OCc2cc(C#N)cc(C#N)c2)c(CN[C@H]2CCC(=O)NC2)cc1Cl | < 5 nM
23 | Cc1c(OCCCN2CCC(O)CC2)cccc1-c1cccc2c1CCC2Oc1cc(OCc2cc(C#N)cc(C#N)c2)c(CN[C@@H]2CCCC[C@@H]2O)cc1Cl (stereo partly shown) | < 5 nM
24 | Cc1c(OCCCN2C(C)CC2C)cccc1-c1cccc2c1CC[C@@H]2Oc1cc(OCc2cc(C#N)cc(C#N)c2)c(CN[C@H]2CCC(=O)NC2)cc1Cl (stereo partly shown) | < 5 nM
25 | Cc1c(OCCCN2CC[C@H](F)C2)cccc1-c1cccc2c1CC[C@@H]2Oc1cc(OCc2cncc(C#N)c2)c(CN[C@@H]2CCCC[C@@H]2O)cc1Cl | < 5 nM
26 | N#Cc1cncc(COc2cc(O[C@H]3CCc4c(-c5cccc(OCCCN6CCC(O)CC6)c5Cl)cccc43)c(Cl)cc2CN[C@@H](CO)C(=O)O)c1 | < 5 nM

Row | Structure (SMILES) | IC50
27 | C[C@@](CO)(NCc1cc(Cl)c(O[C@@H]2c3cccc(-c4cccc(OCCCN5CC(O)C5)c4Cl)c3C[C@@H]2F)cc1OCc1cc(C#N)cc(C#N)c1)C(=O)O | < 5 nM
28 | CC(CO)(NCc1cc(Cl)c(O[C@H]2CCc3c(-c4cccc(OCCCN5CCCCC5)c4Cl)cccc32)cc1OCc1cncc(C#N)c1)C(=O)O (stereo partly shown) | < 5 nM
29 | N#Cc1cncc(COc2cc(O[C@H]3CCc4c(-c5cccc(OCCCN6CC7(CC(F)C7)C6)c5Cl)cccc43)c(Cl)cc2CNC[C@H]2CCC(=O)N2)c1 | < 5 nM
30 | CCCC(CO)(NCc1cc(Cl)c(O[C@H]2CCc3c(-c4cccc(OCCCN5CC(O)C5)c4Cl)cccc32)cc1OCc1cncc(C#N)c1)C(=O)O (stereo partly shown) | < 5 nM
31 | N#Cc1cncc(COc2cc(O[C@H]3CCc4c(-c5cccc(OCCCN6CCC(F)CC6)c5Cl)cccc43)c(Cl)cc2CN[C@H]2CCOC[C@H]2O)c1 | < 5 nM
32 | CC1(O)CN(CCCOc2cccc(-c3cccc4c3CC[C@@H]4Oc3cc(OCc4cncc(C#N)c4)c(CN[C@@](C)(CO)C(=O)O)cc3Cl)c2Cl)C1 | < 5 nM
33 | N#Cc1cncc(COc2cc(O[C@H]3CCc4c(-c5cccc(OCCCN6CC7(C6)CC(F)(F)C7)c5Cl)cccc43)c(Cl)cc2CN[C@@H]2CCC[C@H]2O)c1 | < 5 nM
34 | CC(CO)(CO)NCc1cc(Cl)c(O[C@H]2CCc3c(-c4cccc(OCCCN5CCNC(=O)C5)c4Cl)cccc32)cc1OCc1cncc(C#N)c1 | < 5 nM
35 | Cc1c(OCCCN2CCC(O)CC2)cccc1-c1cccc2c1CCC2Oc1cc(OCc2cc(C#N)cc(C#N)c2)c(CN[C@@H](CO)C(=O)O)cc1Cl (stereo partly shown) | < 5 nM
36 | C[C@@H](O)[C@H](NCc1cc(Cl)c(O[C@H]2CCc3c(-c4cccc(OCCCN5CCCCC5)c4Cl)cccc32)cc1OCc1cncc(C#N)c1)C(=O)NS(C)(=O)=O | < 5 nM
37 | Cc1c(OCCCN2CC3(CC(O)C3)C2)cccc1-c1cccc2c1CC[C@@H]2Oc1cc(OCc2cc(C#N)cc(C#N)c2)c(CNC[C@H]2CCC(=O)N2)cc1Cl | < 5 nM
38 | C[C@@H](O)[C@H](NCc1cc(Cl)c(O[C@H]2CCc3c(-c4cccc(OCCCN5CCC(F)CC5)c4Cl)cccc32)cc1OCc1cncc(C#N)c1)C(=O)NS(C)(=O)=O | < 5 nM
39 | Cc1c(OCCCN2[C@@H](C)CC[C@@H]2C)cccc1-c1cccc2c1CC[C@@H]2Oc1cc(OCc2cc(C#N)cc(C#N)c2)c(CN[C@H]2CCC(=O)NC2)cc1Cl | < 5 nM
40 | Cc1c(OCCCN2CC3(CCC3)C2)cccc1-c1cccc2c1CC[C@@H]2Oc1cc(OCc2cc(C#N)cc(C#N)c2)c(CNC[C@@H]2CCC(=O)N2)cc1Cl | < 5 nM
41 | Cc1c(OCCCN2C3CCC2CC(O)C3)cccc1-c1cccc2c1CC[C@@H]2Oc1cc(OCc2cncc(C#N)c2)c(CNCC2CCC(=O)N2)cc1Cl (stereo partly shown) | < 5 nM
42 | C[C@@](CO)(NCc1cc(Cl)c(O[C@H]2CCc3c(-c4cccc(OCCCN5CCC(O)CC5)c4F)cccc32)cc1OCc1cncc(C#N)c1)C(=O)O | < 5 nM
43 | Cc1c(OCCCN2CCCC[C@H]2C)cccc1-c1cccc2c1CC[C@@H]2Oc1cc(OCc2cc(C#N)cc(C#N)c2)c(CNC[C@H]2CCC(=O)N2)cc1Cl | < 5 nM
44 | Cc1c(OCCCN2CCC(F)CC2)cccc1-c1cccc2c1CC[C@@H]2Oc1cc(OCc2cncc(C(N)=O)c2)c(CN(C)CCC(=O)O)cc1Cl | < 5 nM
45 | Cc1c(OCCCN2CCC(O)CC2)cccc1-c1cccc2c1CC[C@@H]2Oc1cc(OCc2cncc(C#N)c2)c(CN[C@@H]2CCCC[C@@H]2O)cc1Cl | < 5 nM
46 | CCOc1cc(O[C@H]2CCc3c(-c4cccc(OCCCN5CCC5(C)C)c4C)cccc32)c(Cl)cc1CNCCC(=O)OC(C)C | 5 to 500 nM
47 | Cc1c(OCCCN2C(C)CCC2C)cccc1-c1cccc2c1CC[C@@H]2Oc1cc(OCc2cc(C#N)cc(C#N)c2)c(CN[C@H]2CCC(=O)NC2)cc1Cl (stereo partly shown) | < 5 nM
48 | Cc1c(OCCCN2CCC(F)CC2)cccc1-c1cccc2c1CC[C@@H]2Oc1cc(OCc2cncc(C#N)c2)c(CNC[C@@H]2CCC(=O)N2)cc1Cl | < 5 nM
49 | Cc1c(OCCCN2CCCC2)cccc1-c1cccc2c1CC[C@@H]2Oc1cc(OCc2cc(C#N)cc(C#N)c2)c(CN[C@H]2CCC(=O)NC2)cc1Cl | < 5 nM
50 | N#Cc1cncc(COc2cc(O[C@H]3CCc4c(-c5cccc(OCCCN6CC(O)C6)c5Cl)cccc43)c(Cl)cc2CN2CCC(O)CC2)c1 | < 5 nM
51 | Cc1c(OCCCN2CCC(F)(F)CC2)cccc1-c1cccc2c1CC[C@@H]2Oc1cc(OCc2cncc(C#N)c2)c(CN[C@H](C(=O)O)[C@@H](C)O)cc1Cl | 5 to 500 nM
52 | CC(CO)(NCc1cc(Cl)c(O[C@H]2CCc3c(-c4cccc(OCCCN5CC6(CC(F)C6)C5)c4Cl)cccc32)cc1OCc1cncc(C#N)c1)C(=O)O (stereo partly shown) | < 5 nM
